Measurements taken from US8568755B2 (priority 2007, dated 2013).
Values joined by “and” are separate entries in the source; they are usually repeats but may differ in a detail not shown here. Equal values may be shown once. Where a name gives a salt, the structure may show the parent alone. Read-outs that look alike come from different tables or passages of the source.

Experiments:
[1] = test system: Sphaerotheca fuliginea; assay type: in vivo
[2] = test system: Erysiphe graminis; assay: Test on preventive effect against wheat powdery mildew (Test Example 1); assay type: in vivo
[3] = partner fungicide alone 125 ppm
[4] = partner fungicide alone 250 ppm
[5] = partner fungicide alone 500 ppm
[6] = partner fungicide alone 0.125 ppm
[7] = partner fungicide alone 0.5 ppm

Molecule: C/C=C/C(=O)Oc1c(C(C)CCCCCC)cc([N+](=O)[O-])cc1[N+](=O)[O-] (stereo not drawn) [meptyldinocap]
- diseased area ratio to non-treated section (experimental value) ([1]; single use at 3 ppm): 2.5

Molecule: CC1(C)CCC(Cc2ccc(Cl)cc2)C1(O)Cn1cncn1 (stereo not drawn) [metconazole]
- diseased area ratio to non-treated section ([2]; fungicide (b) alone 0.0075 ppm): 95.0
- diseased area ratio to non-treated section ([2]; fungicide (b) alone 0.03 ppm): 55.0

Molecule: CC1(C(=O)Nc2ccc(O)c(Cl)c2Cl)CCCCC1 [fenhexamid]
- diseased area ratio to non-treated section [1, 3]: 52.5
- diseased area ratio to non-treated section [1, 4]: 52.5
- diseased area ratio to non-treated section [1, 5]: 50.0

Molecule: COc1ccc(C(=CC(=O)N2CCOCC2)c2ccc(Cl)cc2)cc1OC [dimethomorph]
- diseased area ratio to non-treated section (experimental value) ([1]; single use at 500 ppm): 95.0

Molecule: CO/C=C(/C(=O)OC)c1ccccc1Oc1cc(Oc2ccccc2C#N)ncn1 [azoxystrobin]
- diseased area ratio to non-treated section ([1]; partner fungicide alone 31 ppm): 37.5 and 55.0
- diseased area ratio to non-treated section ([1]; partner fungicide alone 63 ppm): 35.0 and 55.0
- diseased area ratio to non-treated section [1, 3]: 35.0

Molecule: O=C1c2ccccc2C(=O)N1SC(Cl)(Cl)Cl [folpet]
- diseased area ratio to non-treated section [1, 3]: 84.4
- diseased area ratio to non-treated section [1, 4]: 84.4
- diseased area ratio to non-treated section [1, 5]: 81.3

Molecule: CCCOC(=O)NCCCN(C)C [propamocarb hydrochloride]
- diseased area ratio to non-treated section (experimental value) ([1]; single use at 10 ppm): 95.0
- diseased area ratio to non-treated section (experimental value) ([1]; single use at 100 ppm): 95.0
- diseased area ratio to non-treated section (experimental value) ([1]; single use at 1000 ppm): 92.5

Molecule: CCCN(CC)CC1COC2(CCC(C(C)(C)C)CC2)O1 (stereo not drawn) [spiroxamine]
- diseased area ratio to non-treated section ([2]; fungicide (b) alone 12.5 ppm): 97.0
- diseased area ratio to non-treated section ([2]; fungicide (b) alone 25 ppm): 15.2
- diseased area ratio to non-treated section ([2]; fungicide (b) alone 50 ppm): 6.1

Molecule: Fc1ccc(Oc2ccnc3cc(Cl)cc(Cl)c23)cc1 [quinoxyfen]
- diseased area ratio to non-treated section ([2]; fungicide (b) alone 0.06 ppm): 80.0
- diseased area ratio to non-treated section ([2]; fungicide (b) alone 0.125 ppm): 77.5

Molecule: C[C@H]1O[C@H](O[C@H]2[C@H](O)[C@@H](O)[C@@H](O)[C@H](O)[C@@H]2O)[C@@H](N)C[C@@H]1NC(=N)C(=O)O [kasugamycin]
- diseased area ratio to non-treated section ([2]; fungicide (b) alone 50 ppm): 97.5
- diseased area ratio to non-treated section ([2]; fungicide (b) alone 500 ppm): 55.0

Molecule: polyoxins
- diseased area ratio to non-treated section [1, 3]: 40.0
- diseased area ratio to non-treated section [1, 4]: 35.0

Molecule: CC1COC(Cn2cncn2)(c2ccc(Oc3ccc(Cl)cc3)cc2Cl)O1 (stereo not drawn) [difenoconazole]
- diseased area ratio to non-treated section ([1]; partner fungicide alone 8 ppm): 31.3
- diseased area ratio to non-treated section ([1]; partner fungicide alone 16 ppm): 9.4
- diseased area ratio to non-treated section ([1]; partner fungicide alone 31 ppm): 8.1

Molecule: S1SSSSSSS1 [sulfur]
- diseased area ratio to non-treated section ([2]; fungicide (b) alone 50 ppm): 97.5
- diseased area ratio to non-treated section ([2]; fungicide (b) alone 500 ppm): 40.0

Molecule: CCCOC/C(=N\c1ccc(Cl)cc1C(F)(F)F)n1ccnc1 [triflumizole]
- diseased area ratio to non-treated section ([1]; partner fungicide alone 3 ppm): 85
- diseased area ratio to non-treated section ([1]; partner fungicide alone 12 ppm): 70

Molecule: [Cl-].[Cu+2].[Cu+2].[OH-].[OH-].[OH-] [copper oxychloride]
- diseased area ratio to non-treated section [1, 4]: 25.0
- diseased area ratio to non-treated section [1, 5]: 21.9
- diseased area ratio to non-treated section ([1]; partner fungicide alone 1000 ppm): 20.7 and 20.6

Molecule: CC(=O)c1c(C)c(C)nc2c(F)cc(C(C)(C)C)cc12 [compound β, 2,3-dimethyl-6-t-butyl-8-fluoro-4-acetylquinoline]
- diseased area ratio to non-treated section ([2]; fungicide (b) alone 10 ppm): 95.0

Molecule: CC(Cc1ccc(C(C)(C)C)cc1)CN1CCCCC1 (stereo not drawn) [fenpropidin]
- diseased area ratio to non-treated section ([2]; fungicide (b) alone 12.5 ppm): 27.5
- diseased area ratio to non-treated section ([2]; fungicide (b) alone 25 ppm): 2.0
- diseased area ratio to non-treated section ([2]; fungicide (b) alone 50 ppm): 1.0

Molecule: CCCCC(O)(Cn1cncn1)c1ccc(Cl)cc1Cl (stereo not drawn) [hexaconazole]
- diseased area ratio to non-treated section ([1]; partner fungicide alone 2 ppm): 95.0
- diseased area ratio to non-treated section ([1]; partner fungicide alone 4 ppm): 85.0
- diseased area ratio to non-treated section ([1]; partner fungicide alone 8 ppm): 75.0

Molecule: COc1cc(C)c(C(=O)c2c(OC)ncc(Br)c2Cl)c(OC)c1OC [Compound C, 3-(2,3,4-trimethoxy-6-methylbenzoyl)-5-bromo-4-chloro-2-methoxypyridine]
- diseased area ratio to non-treated section [2, 6]: 37.5
- diseased area ratio to non-treated section [2, 7]: 6.0

Molecule: O=C([O-])O.[K+] [potassium bicarbonate]
- diseased area ratio to non-treated section (experimental value) ([1]; single use at 100 ppm): 25.0
- diseased area ratio to non-treated section (experimental value) ([1]; single use at 1000 ppm): 20.0

Molecule: N#Cc1c(Cl)c(Cl)c(Cl)c(C#N)c1Cl [chlorothalonil]
- diseased area ratio to non-treated section ([1]; partner fungicide alone 4 ppm): 77.5
- diseased area ratio to non-treated section ([1]; partner fungicide alone 16 ppm): 37.5

Molecule: CC(C)(C)C(O)(CCc1ccc(Cl)cc1)Cn1cncn1 (stereo not drawn) [tebuconazole]
- diseased area ratio to non-treated section ([2]; fungicide (b) alone 0.5 ppm): 10.0
- diseased area ratio to non-treated section ([2]; fungicide (b) alone 1 ppm): 5.0

Molecule: CC(C1CC1)C(O)(Cn1cncn1)c1ccc(Cl)cc1 (stereo not drawn) [cyproconazole]
- diseased area ratio to non-treated section ([2]; fungicide (b) alone 0.125 ppm): 97.5
- diseased area ratio to non-treated section ([2]; fungicide (b) alone 0.5 ppm): 60.0

Molecule: CC(C)Oc1ccc(C(=O)C(C)(C)NC(=O)c2ncccc2C(F)(F)F)cc1 [Compound No. 7, N-[[4′-(2-propyloxy)-1,1-dimethyl]phenacyl]-3-trifluoromethyl-2-pyridinecarboxamide]
- diseased area ratio to non-treated section ([2]; Compound (a) alone 8 ppm): 30.0
- diseased area ratio to non-treated section ([2]; Compound (a) alone 16 ppm): 25.0
- diseased area ratio to non-treated section ([2]; Compound (a) alone 31 ppm): 4.0

Molecule: CC(Cc1ccc(C(C)(C)C)cc1)CN1C[C@@H](C)O[C@@H](C)C1 (stereo partly drawn) [fenpropimorph]
- diseased area ratio to non-treated section ([2]; fungicide (b) alone 12.5 ppm): 36.4
- diseased area ratio to non-treated section ([2]; fungicide (b) alone 25 ppm): 9.1

Molecule: CO/N=C(/C(=O)OC)c1ccccc1COc1ccccc1C [kresoxim-methyl]
- diseased area ratio to non-treated section ([2]; fungicide (b) alone 12.5 ppm): 4.9
- diseased area ratio to non-treated section ([2]; fungicide (b) alone 25 ppm): 1.8

Molecule: FC(F)C(F)(F)OCC(Cn1cncn1)c1ccc(Cl)cc1Cl (stereo not drawn) [tetraconazole]
- diseased area ratio to non-treated section ([2]; fungicide (b) alone 0.125 ppm): 60.0
- diseased area ratio to non-treated section ([2]; fungicide (b) alone 0.5 ppm): 52.5

Molecule: Cc1cc(C)nc(Nc2ccccc2)n1 [pyrimethanil]
- diseased area ratio to non-treated section ([1]; partner fungicide alone 25 ppm): 90.0

Molecule: CCO[PH](=O)O [fosetyl-Al]
- diseased area ratio to non-treated section ([2]; fungicide (b) alone 500 ppm): 97.5
- diseased area ratio to non-treated section ([2]; fungicide (b) alone 1000 ppm): 97.5

Molecule: Cc1cc(OC(C)C)ccc1C(=O)C(C)(C)NC(=O)c1ncccc1C(F)(F)F [No. 4]
- diseased area ratio to non-treated section ([2]; Compound No.x alone 16 ppm): 17.5
- diseased area ratio to non-treated section ([2]; Compound No.x alone 31 ppm): 17.5
- diseased area ratio to non-treated section ([2]; Compound No.x alone 63 ppm): 15.0 and 7.5
- diseased area ratio to non-treated section ([2]; Compound No.x alone 125 ppm): 5.0

Molecule: COc1cc(C)c(C(=O)c2c(OC)cnc(Cl)c2C(F)(F)F)c(OC)c1OC [Compound B, 4-(2,3,4-trimethoxy-6-methylbenzoyl)-2-chloro-3-trifluoromethyl-5-methoxypyridine]
- diseased area ratio to non-treated section [2, 6]: 50.0
- diseased area ratio to non-treated section [2, 7]: 30.0

Molecule: CC(C)NC(=O)N1CC(=O)N(c2cc(Cl)cc(Cl)c2)C1=O [iprodione]
- diseased area ratio to non-treated section [1, 3]: 60.0
- diseased area ratio to non-treated section [1, 4]: 45.0
- diseased area ratio to non-treated section [1, 5]: 45.0

Molecule: COC(=O)NC(=S)Nc1ccccc1NC(=S)NC(=O)OC [thiophanate-methyl]
- diseased area ratio to non-treated section ([1]; partner fungicide alone 63 ppm): 75.0
- diseased area ratio to non-treated section [1, 3]: 65.0

Molecule: potassium phosphite
- diseased area ratio to non-treated section (experimental value) ([1]; single use at 100 ppm): 85.0
- diseased area ratio to non-treated section (experimental value) ([1]; single use at 500 ppm): 80.0

Molecule: Cc1cc(C2CC2)nc(Nc2ccccc2)n1 [cyprodinil]
- diseased area ratio to non-treated section ([2]; fungicide (b) alone 31 ppm): 75.0
- diseased area ratio to non-treated section ([2]; fungicide (b) alone 63 ppm): 70.0
- diseased area ratio to non-treated section ([2]; fungicide (b) alone 125 ppm): 32.5

Molecule: CC(C)Oc1ccc(C(=O)C(C)(C)NC(=O)c2ncccc2C(F)(F)F)cc1 [No. 7]
- diseased area ratio to non-treated section ([1]; Compound No.x alone 1 ppm): 81.3
- diseased area ratio to non-treated section ([1]; Compound No.x alone 2 ppm): 75.0
- diseased area ratio to non-treated section ([1]; Compound No.x alone 4 ppm): 56.3

Molecule: Cc1ccc(-c2c(Cl)nc(C#N)n2S(=O)(=O)N(C)C)cc1 [cyazofamid, reference compound]
- diseased area ratio to non-treated section ([1]; fungicide (b) alone 63 ppm): 80.0
- diseased area ratio to non-treated section ([1]; fungicide (b) alone 125 ppm): 57.5
- diseased area ratio to non-treated section ([1]; partner fungicide alone 63 ppm): 70.0
- diseased area ratio to non-treated section [1, 3]: 57.5

Molecule: COP(=S)(OC)Oc1c(Cl)cc(C)cc1Cl [tolclofosmethyl]
- diseased area ratio to non-treated section (experimental value) ([1]; single use at 100 ppm): 80.0

Molecule: CNC(=O)/C(=N/OC)c1ccccc1COc1cc(C)ccc1C [dimoxystrobin]
- diseased area ratio to non-treated section ([2]; fungicide (b) alone 5 ppm): 5.0

Molecule: COC(=O)N(OC)c1ccccc1COc1ccn(-c2ccc(Cl)cc2)n1 [pyraclostrobin]
- diseased area ratio to non-treated section (experimental value) ([1]; single use at 100 ppm): 100

Molecule: Cc1ccsc1C(=O)NC(C)(C)C(=O)c1ccc(Cl)c(Cl)c1 [No. 2]
- diseased area ratio to non-treated section ([1]; Compound No.x alone 2 ppm): 70.0
- diseased area ratio to non-treated section ([1]; Compound No.x alone 4 ppm): 50.0 and 32.5

Molecule: COc1cc(C)c(C(=O)c2c(OC)ccc(Br)c2C)c(OC)c1OC [metrafenone, 3′-bromo-2,3,4,6′-tetramethoxy-2′,6-dimethylbenzophenone]
- diseased area ratio to non-treated section ([2]; fungicide (b) alone 0.0075 ppm): 100
- diseased area ratio to non-treated section ([2]; fungicide (b) alone 0.03 ppm): 35.0

Molecule: N=C(N)NCCCCCCCCNCCCCCCCCNC(=N)N [iminoctadine]
- diseased area ratio to non-treated section ([1]; partner fungicide alone 4 ppm): 65.0
- diseased area ratio to non-treated section ([1]; partner fungicide alone 8 ppm): 45.0
- diseased area ratio to non-treated section ([1]; partner fungicide alone 16 ppm): 30.0

Molecule: CON=C(C(=O)OC)c1ccccc1CON=C(C)c1cccc(C(F)(F)F)c1 [trifloxystrobin]
- diseased area ratio to non-treated section ([1]; partner fungicide alone 4 ppm): 85.0
- diseased area ratio to non-treated section ([1]; partner fungicide alone 200 ppm): 50.0
- diseased area ratio to non-treated section (experimental value) ([1]; single use at 4 ppm): 85.0
- diseased area ratio to non-treated section (experimental value) ([1]; single use at 200 ppm): 50.0

Molecule: N#Cc1c[nH]cc1-c1cccc2c1OC(F)(F)O2 [fludioxonil]
- diseased area ratio to non-treated section ([2]; fungicide (b) alone 125 ppm): 95.0
- diseased area ratio to non-treated section ([2]; fungicide (b) alone 250 ppm): 90.0
- diseased area ratio to non-treated section ([2]; fungicide (b) alone 500 ppm): 85.0

Molecule: Cc1cc(O)no1 [hymexazol]
- diseased area ratio to non-treated section ([1]; partner fungicide alone 100 ppm): 95.0

Molecule: CC12CC1(C)C(=O)N(c1cc(Cl)cc(Cl)c1)C2=O (stereo not drawn) [procymidone]
- diseased area ratio to non-treated section [1, 3]: 85.0
- diseased area ratio to non-treated section [1, 4]: 82.5
- diseased area ratio to non-treated section [1, 5]: 70.0

Molecule: CC#Cc1cc(C)nc(Nc2ccccc2)n1 [mepanipyrim]
- diseased area ratio to non-treated section ([1]; partner fungicide alone 63 ppm): 0.5
- diseased area ratio to non-treated section [1, 3]: 0.5

Molecule: Cc1cccc2sc3nncn3c12 [tricyclazole]
- diseased area ratio to non-treated section ([2]; fungicide (b) alone 50 ppm): 22.5
- diseased area ratio to non-treated section ([2]; fungicide (b) alone 500 ppm): 50.0

Molecule: mancozeb
- diseased area ratio to non-treated section [1, 3]: 50.0
- diseased area ratio to non-treated section [1, 4]: 31.3
